Measurements: US20240293413A1, “COMPOUND AND METHOD FOR TREATING CHEMOTHERAPY-RELATED GASTROINTESTINAL SIDE EFFECTS” (ONQUALITY PHARMACEUTICALS CHINA LTD., priority 2021, published 2024)

Test system: Chemotherapeutic agent-caused diarrhea models of Balb/c mice
Assay: Examples 1-229 (Table 3): oral CDK inhibitor, relief of diarrhea caused by a chemotherapeutic agent;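 note: percent of treated mice whose diarrhea grade fell below chemotherapy-group average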
Assay type: in vivo
Source text: Construction of mouse animal models: Chemotherapeutic agent-caused diarrhea models of Balb/c mice were constructed according to the administration mode and frequency of the chemotherapeutic agent as shown in Table 3.
Balb/c mice were fed for 1 week, and then divided into groups. The experiment was divided into a control group, a chemotherapeutic agent group, and a CDK inhibitor group, each of which comprised 10 mice, to perform the administration experiment, for which the administration dosage, mode, time and frequency were shown in Table 3. The control group: being intragastrically administered with the same solvent as that used in the CDK inhibitor group (the time was shown in Table 3), and then being injected/intragastrically administered with the same solvent as that used in the chemotherapeutic agent group (the administration mode was shown in Table 3): the chemotherapeutic agent group: being intragastrically administered with the same solvent as that used in the CDK inhibitor group (the time was shown in Table 3), and then being injected/intragastrically administered with the chemotherapeutic agent (the type, administration mode and dosage were shown in Table 3); the CDK inhibitor group: being intragastrically administered with the CDK inhibitor (the time was shown in Table 3), and then being administered with the chemotherapeutic agent (the mode and dosage were shown in Table 3).
The diarrhea grading of mice was observed and recorded every day.

For `CC(C)N1CCN(c2ccc(Nc3ncc4cc5n(c4n3)C3(CCCCC3)CNC5=O)nc2)CC1` [G1T38], the “Relative remission rate (%)” value (Example 40, Fluorouracil (5-Fu) intraperitoneal injection 125 mg/kg single, CDK inhibitor oral 150 mg/kg single 1 h before, cycle 10 days) was 20%, the “Relative remission rate (%)” value (Example 41, Fluorouracil (5-Fu) intraperitoneal injection 125 mg/kg single, CDK inhibitor oral 150 mg/kg single 4 h before, cycle 10 days) was 40% and the “Relative remission rate (%)” value (Example 42, Fluorouracil (5-Fu) intraperitoneal injection 125 mg/kg single, CDK inhibitor oral 150 mg/kg single 8 h before, cycle 10 days) was 70%. The “Relative remission rate (%)” value (Example 43, Fluorouracil (5-Fu) intraperitoneal injection 125 mg/kg single, CDK inhibitor oral 150 mg/kg single 16 h before, cycle 10 days) was 50%, the “Relative remission rate (%)” value (Example 79, Oxaliplatin intraperitoneal injection 20 mg/kg single, CDK inhibitor oral 150 mg/kg single 1 h before, cycle 8 days) was 20% and the “Relative remission rate (%)” value (Example 80, Oxaliplatin intraperitoneal injection 20 mg/kg single, CDK inhibitor oral 150 mg/kg single 2 h before, cycle 8 days) was 40%. For the same compound, the “Relative remission rate (%)” value (Example 81, Oxaliplatin intraperitoneal injection 20 mg/kg single, CDK inhibitor oral 150 mg/kg single 4 h before, cycle 8 days) was 40%, the “Relative remission rate (%)” value (Example 82, Oxaliplatin intraperitoneal injection 20 mg/kg single, CDK inhibitor oral 150 mg/kg single 8 h before, cycle 8 days) was 70% and the “Relative remission rate (%)” value (Example 83, Oxaliplatin intraperitoneal injection 20 mg/kg single, CDK inhibitor oral 150 mg/kg single 12 h before, cycle 8 days) was 70%. The “Relative remission rate (%)” value (Example 84, Oxaliplatin intraperitoneal injection 20 mg/kg single, CDK inhibitor oral 150 mg/kg single 16 h before, cycle 8 days) was 50%, the “Relative remission rate (%)” value (Example 125, Irinotecan (CPT-11) intraperitoneal injection 240 mg/kg single, CDK inhibitor oral 150 mg/kg single 4 h before, cycle 7 days) was 50% and the “Relative remission rate (%)” value (Example 126, Irinotecan (CPT-11) intraperitoneal injection 240 mg/kg single, CDK inhibitor oral 150 mg/kg single 6 h before, cycle 7 days) was 60%. The “Relative remission rate (%)” value (Example 128, Irinotecan (CPT-11) intramuscular injection 240 mg/kg single, CDK inhibitor oral 150 mg/kg single 2 h before, cycle 7 days) was 50%, the “Relative remission rate (%)” value (Example 163, Docetaxel (DTX) intraperitoneal injection 10 mg/kg single, CDK inhibitor oral 150 mg/kg single 8 h before, cycle 8 days) was 70% and the “Relative remission rate (%)” value (Example 164, Docetaxel (DTX) intraperitoneal injection 10 mg/kg single, CDK inhibitor oral 150 mg/kg single 12 h before, cycle 8 days) was 60%. The “Relative remission rate (%)” value (Example 211, Carboplatin 5 mg/kg and paclitaxel 10 mg/kg intraperitoneal injection single, CDK inhibitor oral 150 mg/kg single, 8 h before, 10 days) was 40% and the “Relative remission rate (%)” value (Example 212, Carboplatin 5 mg/kg and paclitaxel 10 mg/kg intraperitoneal injection single, CDK inhibitor oral 150 mg/kg single, 12 h before, 10 days) was 70%.

With `CC1=Nc2c(F)cc(-c3nc(Nc4ccc(C5CCN(C)CC5)cn4)ncc3F)cc2C12CCCC2` [GLR2007] the “Relative remission rate (%)” value (Example 155, Docetaxel (DTX) intraperitoneal 10 mg/kg single, CDK inhibitor oral 60 mg/kg single 8 h before, cycle 8 days) was 50%, the “Relative remission rate (%)” value (Example 168, Docetaxel (DTX) intravenous injection 10 mg/kg single, CDK inhibitor oral 60 mg/kg single 4 h before, cycle 8 days) was 30% and the “Relative remission rate (%)” value (Example 191, Gemcitabine (GEM) intraperitoneal injection 120 mg/kg single, CDK inhibitor oral 60 mg/kg single, 10 h before, 8 days) was 50%.

In the case of `NS(=O)(=O)c1ccc(S(=O)(=O)Nc2cccc3c(Cl)c[nH]c23)cc1` [Indisulam], the “Relative remission rate (%)” value (Example 74, Oxaliplatin intraperitoneal injection 20 mg/kg single, CDK inhibitor oral 175 mg/kg single 4 h before, cycle 8 days) is reported as 20% and the “Relative remission rate (%)” value (Example 190, Gemcitabine (GEM) intraperitoneal injection 120 mg/kg single, CDK inhibitor oral 175 mg/kg single, 4 h before, 8 days) is reported as 40%.

With `CN1CCN(c2ccc(Nc3ncc4cc(C#N)c(=O)n(C5CCCC5)c4n3)cc2)CC1` [ON123300] the “Relative remission rate (%)” value (Example 121, Irinotecan (CPT-11) intraperitoneal injection 240 mg/kg single, CDK inhibitor oral 250 mg/kg single 8 h before, cycle 7 days) was 60% and the “Relative remission rate (%)” value (Example 202, Gemcitabine 60 mg/kg and paclitaxel 10 mg/kg intraperitoneal injection single, CDK inhibitor oral 250 mg/kg single, 2 h before, 8 days) was 50%.

`CC(=O)c1c(C)c2cnc(N[C@@H]3CCOC[C@H]3O)cc2n(C2CCCC2)c1=O` [PF-06842874] was tested, and the “Relative remission rate (%)” value (Example 210, Carboplatin 5 mg/kg and paclitaxel 10 mg/kg intraperitoneal injection single, CDK inhibitor oral 80 mg/kg single, 6 h before, 10 days) was 40% and the “Relative remission rate (%)” value (Example 222, Fluorouracil 100 mg/kg and oxaliplatin 10 mg/kg intraperitoneal injection single, CDK inhibitor oral 80 mg/kg single, 4 h before, 10 days) was 30%.

With `COCc1cc(C(=O)Nc2cc([C@H]3CC[C@@H](OC(=O)NC(C)C)C3)[nH]n2)n(C)n1` [PF-07104091] the “Relative remission rate (%)” value (Example 161, Docetaxel (DTX) intraperitoneal injection 10 mg/kg single, CDK inhibitor oral 50 mg/kg single 8 h before, cycle 8 days) was 40%.

`CC(=O)Nc1ccc([C@H](C)C(=O)Nc2ncc(C(C)C)s2)cc1` [PHA-690509] was tested, and the “Relative remission rate (%)” value (Example 123, Irinotecan (CPT-11) intraperitoneal injection 240 mg/kg single, CDK inhibitor oral 60 mg/kg single 12 h before, cycle 7 days) was 40%.

With `CC(C)CC(=O)Nc1[nH]nc2c1CN(C(=O)C1CCN(C)CC1)C2(C)C` [PHA-793887] the “Relative remission rate (%)” value (Example 160, Docetaxel (DTX) intraperitoneal injection 10 mg/kg single, CDK inhibitor oral 70 mg/kg single 4 h before, cycle 8 days) was 30%.

With `COCCN1CCN(Cc2ccc(-c3n[nH]c4c3C(=O)c3c(NC(=O)NN5CCOCC5)cccc3-4)cc2)CC1` [RGB-286638] the “Relative remission rate (%)” value (Example 124, Irinotecan (CPT-11) intraperitoneal injection 240 mg/kg single, CDK inhibitor oral 100 mg/kg single 12 h before, cycle 7 days) was 60% and the “Relative remission rate (%)” value (Example 130, Irinotecan (CPT-11) intravenous injection 200 mg/kg single, CDK inhibitor oral 100 mg/kg single 8 h before, cycle 7 days) was 50%.

In the case of `COc1ccc(F)c(F)c1C(=O)c1cnc(NC2CCN(S(C)(=O)=O)CC2)nc1N` [RO4584820], the “Relative remission rate (%)” value (Example 218, Fluorouracil 100 mg/kg and irinotecan 200 mg/kg intravenous injection single, CDK inhibitor oral 70 mg/kg single, 4 h before, 10 days) is reported as 50%.

`COc1cc(OC)c(/C=C/S(=O)(=O)Cc2ccc(OC)c(NCC(=O)O)c2)c(OC)c1` [Rigosertib] was tested, and the “Relative remission rate (%)” value (Example 116, Irinotecan (CPT-11) intraperitoneal injection 240 mg/kg single, CDK inhibitor oral 250 mg/kg single 4 h before, cycle 7 days) was 20%, the “Relative remission rate (%)” value (Example 189, Gemcitabine (GEM) intraperitoneal injection 120 mg/kg single, CDK inhibitor oral 250 mg/kg single, 6 h before, 8 days) was 30% and the “Relative remission rate (%)” value (Example 214, Fluorouracil 100 mg/kg and irinotecan 200 mg/kg intravenous injection single, CDK inhibitor oral 250 mg/kg single, 2 h before, 10 days) was 20%.

With `Cc1c(Br)c(Br)c2c3c1nc(N1CCNCC1)n3CCC2` [SEL120] the “Relative remission rate (%)” value (Example 75, Oxaliplatin intraperitoneal injection 20 mg/kg single, CDK inhibitor oral 80 mg/kg single 8 h before, cycle 8 days) was 40% and the “Relative remission rate (%)” value (Example 120, Irinotecan (CPT-11) intraperitoneal injection 240 mg/kg single, CDK inhibitor oral 80 mg/kg single 8 h before, cycle 7 days) was 40%.

With `CN1CC[C@H](c2c(OP(=O)(O)O)cc(O)c3c(=O)cc(-c4ccccc4Cl)oc23)[C@H](O)C1` [TP-1287] the “Relative remission rate (%)” value (Example 37, Fluorouracil (5-Fu) intraperitoneal injection 125 mg/kg single, CDK inhibitor oral 10 mg/kg single 10 h before, cycle 10 days) was 40%.

In the case of `CC(C)c1c2cc(-c3nc(Nc4ccc(N5CCNCC5)cn4)ncc3F)ccc2nn1C` [TQB-3616], the “Relative remission rate (%)” value (Example 32, Fluorouracil (5-Fu) intraperitoneal injection 125 mg/kg single, CDK inhibitor oral 70 mg/kg single 4 h before, cycle 10 days) is reported as 30%, the “Relative remission rate (%)” value (Example 148, Docetaxel (DTX) intraperitoneal injection 10 mg/kg single, CDK inhibitor oral 70 mg/kg single 4 h before, cycle 8 days) is reported as 50% and the “Relative remission rate (%)” value (Example 197, Gemcitabine 60 mg/kg and paclitaxel 10 mg/kg intravenous injection single, CDK inhibitor oral 70 mg/kg single, 4 h before, 8 days) is reported as 60%. For the same compound, the “Relative remission rate (%)” value (Example 220, Fluorouracil 100 mg/kg and oxaliplatin 10 mg/kg intraperitoneal injection single, CDK inhibitor oral 70 mg/kg single, 6 h before, 10 days) was 60%.

In the case of `CN1CC[C@@H](c2c(O)cc(O)c3c(=O)cc(-c4ccc(C(F)(F)F)cc4Cl)oc23)[C@@H]1CO` [Voruciclib], the “Relative remission rate (%)” value (Example 76, Oxaliplatin intraperitoneal injection 20 mg/kg single, CDK inhibitor oral 250 mg/kg single 4 h before, cycle 8 days) is reported as 70% and the “Relative remission rate (%)” value (Example 203, Gemcitabine 60 mg/kg and paclitaxel 10 mg/kg intravenous injection single, CDK inhibitor oral 250 mg/kg single, 8 h before, 8 days) is reported as 80%.

For `CN1C/C=C/CCOc2cccc(c2)-c2ccnc(n2)Nc2cccc(c2)C1` [Zotiraciclib], the “Relative remission rate (%)” value (Example 33, Fluorouracil (5-Fu) intraperitoneal injection 125 mg/kg single, CDK inhibitor oral 100 mg/kg single 4 h before, cycle 10 days) was 20% and the “Relative remission rate (%)” value (Example 152, Docetaxel (DTX) intraperitoneal injection 10 mg/kg single, CDK inhibitor oral 100 mg/kg single 8 h before, cycle 8 days) was 30%.

For FN-1501, the “Relative remission rate (%)” value (Example 36, Fluorouracil (5-Fu) intraperitoneal injection 125 mg/kg single, CDK inhibitor oral 200 mg/kg single 6 h before, cycle 10 days) was 60%, the “Relative remission rate (%)” value (Example 156, Docetaxel (DTX) intraperitoneal injection 10 mg/kg single, CDK inhibitor oral 200 mg/kg single 10 h before, cycle 8 days) was 60% and the “Relative remission rate (%)” value (Example 169, Docetaxel (DTX) intravenous injection 10 mg/kg single, CDK inhibitor oral 200 mg/kg single 8 h before, cycle 8 days) was 50%.
